Data reported in US20250034139A1, “AMINE COMPOUNDS HAVING ANTI-INFLAMMATORY, ANTIFUNGAL, ANTIPARASITIC, AND ANTICANCER ACTIVITY” (PHARMA CINQ, LLC, priority 2013, published 2025).
≈ marks a conversion by molar mass, not a printed value. Like-named read-outs stand apart in the source and are kept apart here.

Tests used:
[1] = tested on: Hep3B hepatocellular carcinoma cell line; conditions: for Tumor Weight (g) Mean ± SEM: Hep3B in liver of nude mice, day 35, oral daily, sorafenib 30 mg/kg/day alone, 20 mg/kg/day in combination, AC 180, AK and AB 360 μmol/kg/day; for Body Weight (g) Mean ± SEM Initial: in vivo; for Complete Regressions: number of mice with no viable tumor at necropsy, day 35, doses as Table 35
From the text: Hepatocellular carcinoma (HCC) is one of the most common and lethal cancers worldwide, generally developing as a consequence of chronic infection with hepatitis B or C viruses. […] The Hep3B hepatocellular carcinoma cell line is human in origin, contains genetic traces of hepatitis B virus, and can be injected into the livers of athymic immunocompromised mice as a model of primary HCC. […] The test compounds were all administered orally.
The test compounds of the invention were suspended in 1% hydroxypropylmethylcellulose (HPMC) using a sonicator equipped with a microtip to minimize particle size and maximize uniformity of the suspension. Sorafenib was dissolved in a 1:1 mixture of Cremophor EL and ethanol by heating to 60° C. for 1 minute and then sonicating for 10 minutes to fully suspend. Female nude mice (Hsd:athymic nude-Foxn1^nu) weighing approximately 25 g were anesthetized with ketamine/xylazine, laid on their backs, and a 1-cm transverse incision made through the skin and peritoneum of the left upper abdomen. The mediant lobe of the liver was exposed by applying gentle pressure on the abdomen. 1.5-2×10^6 Hep3B cells in a 20 μL volume of matrigel:EMEM serum free (1:1) were slowly implanted by subserosal injection into the liver using a 27-gauge needle on a Hamilton syringe. The liver was allowed to slip back into place, and the peritoneum was closed with sutures and wound clips.
Mice were divided into 8 groups of mice each following injection of cells; the vehicle/vehicle group comprised 12 mice and the other groups comprised 8 or 9. Mice began receiving oral test drug treatments 48 hr post cell injection.
The test compounds, sorafenib, and vehicles were administered by oral gavage. Sorafenib or its cremophor-containing vehicle were given in the morning and compounds of the invention or their HPMC vehicle was administered in the afternoon each day; all animals received two gavage treatments of drugs or appropriate vehicles daily.

[2] = tested on: Cryptococcus neoformans (serotype D); test: Example K: Cryptococcus neoformans (serotype D) growth inhibition; format: cell-based; conditions: Cryptococcus deneoformans, OD of 48 hour reading, 37° C., tested 4 to 60 μM, XLfit
Method: Cryptococcus neoformans (serotype D) were plated in 96 well plates with 144 μl/well of 8×10e5 CFU/ml in YM growth medium. Diluted compounds were then added to each well with concentration ranged from 4 to 60 μM as final concentration in duplicates. The plates were inoculated at 37° C. for total of 48 hours. Two readings of OD at 600 nm were measured after 30 and 48 hour treatments.
• 1. Pick a single colony of Cryptococcus from the YM agar plate using the inoculum loop and inoculate into a 125 ml flask containing 25 ml of YM growth medium. • 2. Incubate at 37° C. with shaking at 220 rpm for 24 hours with loosen lid to allow air in and facilitates growth. • 3. Examine an aliquot of the culture under a microscope for yeast cell morphology and lack of bacterial contamination. • 4. Dilute the overnight culture with YM medium at 1:100 dilution and count the number of cells as 1×10^6 cfu/ml. • 5. Make a final concentration of cells suspension at 8×10^5 cfu/ml in YM medium. • 6. Plate 144 μl/well of 8×10^5 cfu/ml cell suspension on 96-well plates. Part-II: Cryptococcus Growth Inhibition Testing with Compounds • 1. From 10 mM DMSO stock solutions, make serial dilutions of compounds to 0.1, 0.2, 0.3, 0.5, 1.0 and 1.5 mM solution. • 2. Add 6 ul each of diluted compound solutions per well in duplicates. The final concentrations were 0, 4, 8, 12, 20, 40 and 60 micromolar. • 3. Incubated all plates at 37° C. overnight (30 hours) with 150 rpm shaking. • 4. Read absorbance at OD600 for each plate. • 5. Leave plates in 37° C. incubator for another day and read absorbance at OD600 again at 48 hours to ensure the inhibitory effect of the compounds. • 6. Calculated the % inhibition and IC50 of each compound against untreated cells.

THP-1 cells = test: Example D: LPS-triggered THP-1 cell death assay, acute/5-hour and chronic/48-hour; format: cell-based, Human; conditions: for Viable cell percent change, Chronic/48-hour, Mean: 10 ng/ml LPS, 0.1 μM test compound
Method: Compounds of the invention were tested at 0.1 μM versus AC in the LPS-triggered THP-1 cell death assay. Both acute/5-hour and chronic/48-hour phases of cell death were assessed. Compounds were screened in batches with DMSO as the negative control and AC as the high activity control.

Trichophyton rubrum = test: Example J: Trichophyton rubrum growth inhibition, scoring by eye; format: cell-based; conditions: Trichophyton rubrum, 144 h; 6 days at 30° C., tested 6 to 40 μM; read-out: MIC, μM (maximum inhibition concentration, scoring by eye)
Method: Trichophyton grown on two agar plates were collected by scraping into 10 ml saline and filtered through 8 μm filters. […] This experiment included some active compounds from previous experiment and added several untested compounds. […] Following table listed the maximum inhibition concentration (MIC) based on scoring by eye. Scrape frozen Trichophyton culture from ATCC vial and suspended in 100 μl PDB, and then plate on a PDA plate. Incubate plate at 30 C for 4 days. The plate was covered almost full. […] Take OD of collected solution at 520 nm and 600 nm: […] Part-II: […] Add 6 μl each of diluted compound solutions per well in triplicates. […] Wrap the plates with […] incubate all plates at 30° C. for 6 days. • Take picture of the plates on KODAK imager with 17 captures of 1.5 sec/capture for total of 25.5 second exposure.

[3] = tested on: Candida albicans strain 3153; test: Example H: Candida albicans growth inhibition (OD 600 nm); format: cell-based; conditions: for MIC: Candida albicans, 3153, 24 hrs at 30° C., YPD, XLfit, read-out: MIC (uM) (99% of inhibition of fungal growth); for IC50: Candida albicans, 3153, read-out: IC50 (uM) (50% inhibition of fungal growth), 24 hrs at 30° C., YPD, XLfit
In short: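 Growth inhibition computed as % versus DMSO control from OD600 after ~24 h at 30° C. Inoculum: washed overnight YPD culture of strain 3153 at 3.5×10^4 CFU/ml in YPD; final compound concentrations 0, 5, 10, 16, 22, 30, 40 μM, duplicate wells.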

[4] = tested on: PC-3 prostate cancer cells; test: Example T: sensitisation of PC-3 cells to doxorubicin, oxaliplatin, paclitaxel or vincristine, Wst1; format: cell-based, human; conditions: for Doxorubicin 3.5 μM: percent cell survival / Oxaliplatin 100 μM: percent cell survival / Paclitaxel 50 μM: percent cell survival / Vincristine 100 nM: percent cell survival: chemotherapy agent alone normalized to 100%
[5] = tested on: PC3 human prostate cancer cells; test: Example S: in vitro anticancer screen, PC-3 cells, Wst1; format: cell-based; conditions: Homo sapiens, read-out: PC-3, percent of cancer cell survival relative to vehicle treated cells
In short: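 PC-3 cells, 2×10^4 cells/well, exposed ~20 h to vehicle or compound at 0.4, 0.5 or 2.5 μM as specified per compound. Wst1 dye added for 2 h; absorbance 450 nm (reference 630 nm), triplicates. Values are percent cell survival versus vehicle-treated cells.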

[6] = tested on: 4T1 murine breast cancer cells; test: Example S: in vitro anticancer screen, 4T1 cells, Wst1; format: cell-based, mouse; conditions: Mus musculus, 4T1, 18 h; for viability at 1 µM: read-out: 4T1 1 μM, percent of cancer cell survival relative to vehicle treated cells; for viability at 5 µM: read-out: 4T1 5 μM, percent of cancer cell survival relative to vehicle treated cells
In short: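 4T1 cells seeded at 1×10^4/well were exposed to compound at 1 μM or 5 μM for 18 hr after plating. Wst1 tetrazolium dye was then added for about 2 hr and absorbance read at 450 nm (reference 630 nm). Values are percent survival relative to vehicle-treated cells.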

[7] = tested on: 4T1 mouse mammary breast cancer cells; test: Example O: syngeneic 4T1 breast cancer growth in Balb/C mice; format: in vivo; conditions: 4T1 in female Balb/C mice; for Final Tumor Volume: 120 μmol/kg/day oral gavage, day 2 to day 30; for Δ BW % / Final Body Weight / Initial Body Weight: 120 μmol/kg/day oral; for Δ BW %: final vs initial body weight; for Final Body Weight: in g (unit assumed); for Initial Body Weight: initial (baseline)
Method: Cancer models in mice generally either involve syngeneic murine tumors in immunocompetent mice or xenografts of human tumors in immunocompromised mice. […] Mice received test compounds by oral gavage in 1% hydroxypropylmethylcellulose from day 2 until day 30. Tumor growth was assessed by caliper measurements twice per week and tumor weight after necropsy, and body weight was also monitored. Treatment groups were: • 1. […] HPMC) • 2. CI (120 μmol/kg/day) • 3. BA (120 μmol/kg/day) • 4. CP (120 μmol/kg/day) • 5. CQ (120 μmol/kg/day) • 6. AA (120 μmol/kg/day) • 7. AC (120 μmol/kg/day)

Row | MIC [3] [µM] | IC50 [3] [µM] | Structure (SMILES) | Tumor Weight (g) Mean ± SEM [1] [g] | Body Weight (g) Mean ± SEM Initial [1] [g] | Complete Regressions [1] | Viable cell percent change, Chronic/48-hour, Mean (THP-1 cells) [%] | Final Tumor Volume [7] [mm^3] | Δ BW % [7] [%] | Final Body Weight [7] | Initial Body Weight [7] [g] | other results
1 | 33 (≈ 11.1 µg/mL) | 11 | CCCCCCOc1ccc(CNc2ncnc3ccccc23)cc1 [AB, N-[4-(Hexyloxy)benzyl]quinazolin-4-amine] | 0.88 ± 0.33 | 26.2 ± 0.7 | 2 | 56.56 | – | – | – | – | IC50 ([2]; read-out: IC50 (concentration for 50% of inhibition)): 1.15 µM; MIC ([2]; read-out: MIC (concentration for maximum-99% of inhibition)): 40.8 µM (≈ 13.7 µg/mL); MIC (Trichophyton rubrum): 18 µM (≈ 6.04 µg/mL)
2 | 96.7 (≈ 35.3 µg/mL) | 34.6 | CCCCCCOc1ccc(OCCNc2ccnc3ccccc23)cc1 [BA, N-{2-[4-(Hexyloxy)phenoxy]ethyl}quinolin-4-amine] | – | – | – | 41.79 | 641 ± 159 | −2.7 | 24.8 ± 2.0 | 25.5 ± 1.5 | viability at 1.5 µM ([4]; Homo sapiens, PC-3 cells, compound 1.5 μM alone, 72 hours, Wst1, vehicle = 100, read-out: No Chemo: percent cell survival): 42.4%; Doxorubicin 3.5 μM: percent cell survival ([4]; PC-3 cells, compound 1.5 μM + doxorubicin 3.5 μM, 72 hours): 167.3%; Oxaliplatin 100 μM: percent cell survival ([4]; PC-3 cells, compound 1.5 μM + oxaliplatin 100 μM, 72 hours): 146.7%; Paclitaxel 50 μM: percent cell survival ([4]; PC-3 cells, compound 1.5 μM + paclitaxel 50 μM, 72 hours): 145.7%; Vincristine 100 nM: percent cell survival ([4]; PC-3 cells, compound 1.5 μM + vincristine 100 nM, 72 hours): 148.7%; viability at 1.5 µM ([5]; PC-3, 1.5 μM, approximately 20 hours, Wst1): 42.4%; viability at 1 µM ([6]; 1 μM, 18 hr, Wst1): 71.7%; viability at 5 µM ([6]; 5 μM, 18 hr, Wst1): 220%
3 | – | – | CCCCOCCCCCCCCNc1ccnc2ccccc12 [CI, N-(8-Butoxyoctyl)quinolin-4-amine] | – | – | – | 28.46 | 702 ± 244 | −5.5 | 20.6 ± 0.6 | 21.8 ± 0.8 | viability at 0.4 µM ([4]; Homo sapiens, PC-3, 72 h, read-out: No Chemo: percent cell survival): 77.9%; Doxorubicin 3.5 μM: percent cell survival ([4]; PC-3 cells, compound 0.4 μM + doxorubicin 3.5 μM, 72 hours): 67.6%; Oxaliplatin 100 μM: percent cell survival ([4]; PC-3 cells, compound 0.4 μM + oxaliplatin 100 μM, 72 hours): 21.8%; Paclitaxel 50 μM: percent cell survival ([4]; PC-3 cells, compound 0.4 μM + paclitaxel 50 μM, 72 hours): 48.7%; Vincristine 100 nM: percent cell survival ([4]; PC-3 cells, compound 0.4 μM + vincristine 100 nM, 72 hours): 33.8%; viability at 0.4 µM ([5]; PC-3, 20 h): 77.9%; viability at 1 µM [6]: 28.3%; viability at 5 µM [6]: 19.1%; activity relative to AC in the LPS-triggered THP-1 cell death assay, in words (THP-1 cells; 0.1 μM, 5-hour and 48-hour time points): equivalent activity to AC at both the 5-hour and 48-hour time points
4 | – | – | CNC(=O)c1cc(Oc2ccc(NC(=O)Nc3ccc(Cl)c(C(F)(F)F)c3)cc2)ccn1 [Sorafenib, sorafenib, reference compound] | 0.81 ± 0.20 | 25.9 ± 0.7 | 1 | – | – | – | – | – | –
